Data from PubChem BioAssay (NCI).
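Dose response: 5 concentrations. Exposure: 48 h. Format: 96-well plates. Endpoint: linear interpolation; highest concentration if not reached. TGI denotes the concentration required for complete inhibition of growth.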

Assays:
Assay in all cases: growth of human tumour cells (NCI), 48 h
A549 NSCLC = test system: A549 NSCLC
SF-539 CNS = test system: SF-539 CNS
OVCAR-8 ovarian = test system: OVCAR-8 ovarian
MCF7 breast = test system: MCF7 breast
RXF 393 renal = test system: RXF 393 renal
NCI-H226 lung = test system: NCI-H226 lung
SK-MEL-28 melanoma = test system: SK-MEL-28 melanoma
HOP-92 NSCLC = test system: HOP-92 NSCLC
MALME-3M melanoma = test system: MALME-3M melanoma
M14 melanoma = test system: M14 melanoma
NCI-H522 lung = test system: NCI-H522 lung
MDA-MB-231 breast = test system: MDA-MB-231 breast
RPMI-8226 leukemia = test system: RPMI-8226 leukemia
MDA-MB-435 = test system: MDA-MB-435
UO-31 renal = test system: UO-31 renal
NCI-H23 lung = test system: NCI-H23 lung
HS 578T breast = test system: HS 578T breast
LOX IMVI melanoma = test system: LOX IMVI melanoma
SN12C renal = test system: SN12C renal
DU-145 prostate = test system: DU-145 prostate
A498 renal = test system: A498 renal
KM12 colon = test system: KM12 colon
HCC-2998 colon = test system: HCC-2998 colon
CAKI-1 renal = test system: CAKI-1 renal
PC-3 prostate = test system: PC-3 prostate
TK-10 renal = test system: TK-10 renal
OVCAR-3 ovarian = test system: OVCAR-3 ovarian
HCT-116 colon = test system: HCT-116 colon
HT29 colon = test system: HT29 colon
HOP-62 NSCLC = test system: HOP-62 NSCLC
ACHN renal = test system: ACHN renal
OVCAR-4 ovarian = test system: OVCAR-4 ovarian
SW-620 colon = test system: SW-620 colon
786-0 renal = test system: 786-0 renal
OVCAR-5 ovarian = test system: OVCAR-5 ovarian
K-562 leukemia = test system: K-562 leukemia
SK-OV-3 ovarian = test system: SK-OV-3 ovarian
HCT-15 colon = test system: HCT-15 colon
MDA-N = test system: MDA-N
COLO 205 colon = test system: COLO 205 colon
NCI/ADR-RES ovarian = test system: NCI/ADR-RES ovarian
SR leukemia = test system: SR leukemia
SNB-75 CNS = test system: SNB-75 CNS
SF-295 CNS = test system: SF-295 CNS
U251 CNS = test system: U251 CNS
IGROV1 ovarian = test system: IGROV1 ovarian
UACC-62 melanoma = test system: UACC-62 melanoma
EKVX NSCLC = test system: EKVX NSCLC
SK-MEL-5 melanoma = test system: SK-MEL-5 melanoma
HL-60(TB) leukemia = test system: HL-60(TB) leukemia
T-47D breast = test system: T-47D breast
CCRF-CEM leukemia = test system: CCRF-CEM leukemia
SNB-19 CNS = test system: SNB-19 CNS
SK-MEL-2 melanoma = test system: SK-MEL-2 melanoma
MOLT-4 leukemia = test system: MOLT-4 leukemia
SF-268 CNS = test system: SF-268 CNS
NCI-H460 lung = test system: NCI-H460 lung
UACC-257 melanoma = test system: UACC-257 melanoma

OC1c2ccccc2CCC1C(O)(C(F)(F)F)C(F)(F)F (stereo not given)
TGI (A549 NSCLC): > 100 µM | TGI (SF-539 CNS): > 100 µM | TGI (OVCAR-8 ovarian): > 100 µM | TGI (MCF7 breast): > 100 µM | TGI (RXF 393 renal): > 100 µM | TGI (NCI-H226 lung): > 100 µM | TGI (SK-MEL-28 melanoma): > 100 µM | TGI (HOP-92 NSCLC): > 100 µM | TGI (MALME-3M melanoma): > 100 µM | TGI (M14 melanoma): > 100 µM | TGI (NCI-H522 lung): > 100 µM | TGI (MDA-MB-231 breast): > 100 µM | TGI (RPMI-8226 leukemia): > 100 µM | TGI (MDA-MB-435): > 100 µM | TGI (UO-31 renal): > 100 µM | TGI (NCI-H23 lung): > 100 µM | TGI (HS 578T breast): > 100 µM | TGI (LOX IMVI melanoma): > 100 µM | TGI (SN12C renal): > 100 µM | TGI (DU-145 prostate): > 100 µM | TGI (A498 renal): > 100 µM | TGI (KM12 colon): > 100 µM | TGI (HCC-2998 colon): > 100 µM | TGI (CAKI-1 renal): > 100 µM | TGI (PC-3 prostate): > 100 µM | TGI (TK-10 renal): > 100 µM | TGI (OVCAR-3 ovarian): > 100 µM | TGI (HCT-116 colon): > 100 µM | TGI (HT29 colon): > 100 µM | TGI (HOP-62 NSCLC): > 100 µM | TGI (ACHN renal): > 100 µM | TGI (OVCAR-4 ovarian): > 100 µM | TGI (SW-620 colon): > 100 µM | TGI (786-0 renal): > 100 µM | TGI (OVCAR-5 ovarian): > 100 µM | TGI (K-562 leukemia): > 100 µM | TGI (SK-OV-3 ovarian): > 100 µM | TGI (HCT-15 colon): > 100 µM | TGI (MDA-N): > 100 µM | TGI (COLO 205 colon): > 100 µM | TGI (NCI/ADR-RES ovarian): > 100 µM | TGI (SR leukemia): > 100 µM | TGI (SNB-75 CNS): > 100 µM | TGI (SF-295 CNS): > 100 µM | TGI (U251 CNS): > 100 µM | TGI (IGROV1 ovarian): > 100 µM | TGI (UACC-62 melanoma): > 100 µM | TGI (EKVX NSCLC): > 100 µM | TGI (SK-MEL-5 melanoma): > 100 µM | TGI (HL-60(TB) leukemia): > 100 µM | TGI (T-47D breast): > 100 µM | TGI (CCRF-CEM leukemia): > 100 µM | TGI (SNB-19 CNS): > 100 µM | TGI (SK-MEL-2 melanoma): > 100 µM | TGI (MOLT-4 leukemia): > 100 µM | TGI (SF-268 CNS): > 100 µM | TGI (NCI-H460 lung): > 100 µM

CCOC(=O)C(/C=N\C(=S)Nc1c(CC)cccc1C(C)(C)C)=C(/O)c1ccccc1
TGI (A549 NSCLC): > 100 µM | TGI (SF-539 CNS): > 100 µM | TGI (OVCAR-8 ovarian): > 100 µM | TGI (MCF7 breast): > 100 µM | TGI (RXF 393 renal): > 100 µM | TGI (NCI-H226 lung): > 100 µM | TGI (SK-MEL-28 melanoma): > 100 µM | TGI (UACC-257 melanoma): > 100 µM | TGI (MALME-3M melanoma): > 100 µM | TGI (M14 melanoma): > 100 µM | TGI (NCI-H522 lung): > 100 µM | TGI (MDA-MB-231 breast): > 100 µM | TGI (RPMI-8226 leukemia): > 100 µM | TGI (MDA-MB-435): > 100 µM | TGI (UO-31 renal): > 100 µM | TGI (NCI-H23 lung): > 100 µM | TGI (HS 578T breast): 87.5 µM | TGI (LOX IMVI melanoma): > 100 µM | TGI (SN12C renal): > 100 µM | TGI (DU-145 prostate): > 100 µM | TGI (A498 renal): > 100 µM | TGI (KM12 colon): > 100 µM | TGI (HCC-2998 colon): > 100 µM | TGI (CAKI-1 renal): > 100 µM | TGI (PC-3 prostate): > 100 µM | TGI (HCT-116 colon): > 100 µM | TGI (HT29 colon): > 100 µM | TGI (HOP-62 NSCLC): > 100 µM | TGI (ACHN renal): > 100 µM | TGI (OVCAR-4 ovarian): > 100 µM | TGI (SW-620 colon): > 100 µM | TGI (786-0 renal): > 100 µM | TGI (OVCAR-5 ovarian): > 100 µM | TGI (K-562 leukemia): > 100 µM | TGI (SK-OV-3 ovarian): > 100 µM | TGI (HCT-15 colon): > 100 µM | TGI (MDA-N): > 100 µM | TGI (COLO 205 colon): > 100 µM | TGI (NCI/ADR-RES ovarian): > 100 µM | TGI (SR leukemia): > 100 µM | TGI (SNB-75 CNS): > 100 µM | TGI (SF-295 CNS): > 100 µM | TGI (U251 CNS): > 100 µM | TGI (IGROV1 ovarian): > 100 µM | TGI (UACC-62 melanoma): > 100 µM | TGI (EKVX NSCLC): > 100 µM | TGI (SK-MEL-5 melanoma): > 100 µM | TGI (HL-60(TB) leukemia): > 100 µM | TGI (T-47D breast): > 100 µM | TGI (CCRF-CEM leukemia): > 100 µM | TGI (SK-MEL-2 melanoma): > 100 µM | TGI (MOLT-4 leukemia): > 100 µM | TGI (SF-268 CNS): > 100 µM

CCOCCOC(=O)C1CCC(=O)N1CN(C(C)=O)c1cc(OC)ccc1OC (stereo not given)
TGI (A549 NSCLC): > 100 µM | TGI (SF-539 CNS): > 100 µM | TGI (OVCAR-8 ovarian): > 100 µM | TGI (MCF7 breast): > 100 µM | TGI (RXF 393 renal): > 100 µM | TGI (NCI-H226 lung): > 100 µM | TGI (SK-MEL-28 melanoma): > 100 µM | TGI (UACC-257 melanoma): > 100 µM | TGI (HOP-92 NSCLC): > 100 µM | TGI (MALME-3M melanoma): > 100 µM | TGI (M14 melanoma): > 100 µM | TGI (NCI-H522 lung): > 100 µM | TGI (MDA-MB-231 breast): > 100 µM | TGI (RPMI-8226 leukemia): > 100 µM | TGI (MDA-MB-435): > 100 µM | TGI (UO-31 renal): > 100 µM | TGI (NCI-H23 lung): > 100 µM | TGI (HS 578T breast): > 100 µM | TGI (LOX IMVI melanoma): > 100 µM | TGI (SN12C renal): > 100 µM | TGI (DU-145 prostate): > 100 µM | TGI (A498 renal): > 100 µM | TGI (KM12 colon): > 100 µM | TGI (CAKI-1 renal): > 100 µM | TGI (PC-3 prostate): > 100 µM | TGI (TK-10 renal): > 100 µM | TGI (OVCAR-3 ovarian): > 100 µM | TGI (HCT-116 colon): > 100 µM | TGI (HT29 colon): > 100 µM | TGI (HOP-62 NSCLC): > 100 µM | TGI (ACHN renal): > 100 µM | TGI (OVCAR-4 ovarian): > 100 µM | TGI (SW-620 colon): > 100 µM | TGI (786-0 renal): > 100 µM | TGI (OVCAR-5 ovarian): > 100 µM | TGI (K-562 leukemia): > 100 µM | TGI (SK-OV-3 ovarian): > 100 µM | TGI (HCT-15 colon): > 100 µM | TGI (MDA-N): > 100 µM | TGI (COLO 205 colon): > 100 µM | TGI (NCI/ADR-RES ovarian): > 100 µM | TGI (SR leukemia): > 100 µM | TGI (SNB-75 CNS): > 100 µM | TGI (SF-295 CNS): > 100 µM | TGI (U251 CNS): > 100 µM | TGI (IGROV1 ovarian): > 100 µM | TGI (UACC-62 melanoma): > 100 µM | TGI (EKVX NSCLC): > 100 µM | TGI (SK-MEL-5 melanoma): > 100 µM | TGI (T-47D breast): > 100 µM | TGI (SNB-19 CNS): > 100 µM | TGI (SK-MEL-2 melanoma): > 100 µM | TGI (MOLT-4 leukemia): > 100 µM | TGI (SF-268 CNS): > 100 µM | TGI (NCI-H460 lung): > 100 µM
